Experiments:
[1] = biological target: Protein phosphatase 3 catalytic subunit alpha (Homo sapiens, UniProt Q08209); design: species or system Escherichia coli;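 further: inhibition of calcineurin (PP2B) enzyme activity, measured with DiFMUP as the substrate; in other assays of this panel Not Active means under 50% inhibition at 10 µM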
[2] = DRUGMATRIX: Tumor Necrosis Factor (TNF), Non-Selective radioligand binding (ligand: [125I] TNF-alpha); type: cell membranes, Membrane; conditions: u-937; Not Active = under 50% inhibition at 10 µM
[3] = biological target: T1, Adenosine receptor A1 (Homo sapiens, UniProt P30542); type: cell membranes, CHO, Membrane; conditions: cho;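 further: radioligand binding assay at the adenosine A1 receptor, with DPCPX serving as the labelled ligand; in other assays of this panel Not Active means under 50% inhibition at 10 µM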
T1 sequence (P30542 whole entry): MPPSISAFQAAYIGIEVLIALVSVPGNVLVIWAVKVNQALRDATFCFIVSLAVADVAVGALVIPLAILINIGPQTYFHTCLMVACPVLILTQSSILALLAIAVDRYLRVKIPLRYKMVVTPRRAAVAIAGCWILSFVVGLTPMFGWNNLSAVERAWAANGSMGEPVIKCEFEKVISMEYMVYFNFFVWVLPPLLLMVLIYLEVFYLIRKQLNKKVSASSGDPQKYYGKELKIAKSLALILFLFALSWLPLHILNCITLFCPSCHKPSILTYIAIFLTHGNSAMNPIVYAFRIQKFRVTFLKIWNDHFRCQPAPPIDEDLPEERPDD

[4] = DRUGMATRIX: Phosphodiesterase PDE4 enzyme inhibition (substrate: [3H]cAMP + cAMP); conditions: u-937; Not Active = under 50% inhibition at 10 µM
[5] = biological target: T2, Alpha-1B adrenergic receptor (Rattus norvegicus, UniProt P15823); test: DRUGMATRIX: Alpha-1B adrenergic receptor radioligand binding (ligand: prazosin); type: cell membranes, Wistar, Liver, Membrane; conditions: Not Active = under 50% inhibition at 10 µM; for Ki: read-out: Ki
T2 sequence (P15823 whole entry): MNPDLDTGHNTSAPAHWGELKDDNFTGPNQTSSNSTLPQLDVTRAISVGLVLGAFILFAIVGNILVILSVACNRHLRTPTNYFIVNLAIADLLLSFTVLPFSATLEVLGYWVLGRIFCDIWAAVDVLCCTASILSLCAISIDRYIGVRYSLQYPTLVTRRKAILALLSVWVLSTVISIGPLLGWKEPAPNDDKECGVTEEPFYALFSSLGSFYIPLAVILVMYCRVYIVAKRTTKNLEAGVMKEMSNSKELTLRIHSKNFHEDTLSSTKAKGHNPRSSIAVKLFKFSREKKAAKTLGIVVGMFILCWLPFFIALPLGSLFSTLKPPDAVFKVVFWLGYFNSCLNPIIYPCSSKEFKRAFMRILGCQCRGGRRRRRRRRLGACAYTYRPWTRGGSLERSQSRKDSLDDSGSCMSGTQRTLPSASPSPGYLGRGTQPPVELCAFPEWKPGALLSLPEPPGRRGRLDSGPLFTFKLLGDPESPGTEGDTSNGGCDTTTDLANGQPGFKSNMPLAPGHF

[6] = biological target: T3, Substance-K receptor (Homo sapiens, UniProt P21452); type: cell membranes, CHO, Membrane; conditions: cho; further: in other assays of this panel Not Active means under 50% inhibition at 10 µM
T3 sequence (P21452 whole entry): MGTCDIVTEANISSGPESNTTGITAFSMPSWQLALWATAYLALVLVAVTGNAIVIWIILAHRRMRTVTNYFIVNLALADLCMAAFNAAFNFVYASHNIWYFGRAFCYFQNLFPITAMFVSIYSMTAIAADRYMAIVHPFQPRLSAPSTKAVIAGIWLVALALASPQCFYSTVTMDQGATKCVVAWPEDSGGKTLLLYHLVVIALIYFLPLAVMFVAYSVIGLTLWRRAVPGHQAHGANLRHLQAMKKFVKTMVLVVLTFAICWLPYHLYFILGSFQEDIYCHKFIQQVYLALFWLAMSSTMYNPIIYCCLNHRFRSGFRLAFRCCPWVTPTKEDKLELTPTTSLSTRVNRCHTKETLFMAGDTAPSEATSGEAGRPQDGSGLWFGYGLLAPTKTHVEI

Compound: CN1C(=O)CN=C(c2ccccc2)c2cc([N+](=O)[O-])ccc21 [NIMETAZEPAM]
- IC50 [1]: Not Active
- IC50 [2]: Not Active
- Ki [2]: Not Active
- IC50 [3]: Not Active
- IC50 [4]: Not Active
- Ki [4]: Not Active
- IC50 [5]: Not Active
- IC50 [6]: Not Active

Compound: COc1ccc2c(c1OC)C(=O)O[C@@H]2[C@H]1c2c(cc3c(c2OC)OCO3)CCN1C [NOSCAPINE]
- IC50 [1]: Not Active
- IC50 [2]: Not Active
- Ki [2]: Not Active
- IC50 [3]: Not Active
- IC50 [4]: Not Active
- Ki [4]: Not Active
- IC50 [5]: Not Active
- IC50 [6]: Not Active

Compound: C[C@@H]1O[C@@H](O[C@H]2C[C@@H](O)[C@]3(CO)[C@H]4[C@H](O)C[C@]5(C)[C@@H](C6=CC(=O)OC6)CC[C@]5(O)[C@@H]4CC[C@]3(O)C2)[C@H](O)[C@H](O)[C@H]1O [OUABAIN]
- IC50 [1]: Not Active
- IC50 [2]: Not Active
- Ki [2]: Not Active
- IC50 [3]: Not Active
- IC50 [4]: Not Active
- Ki [4]: Not Active
- IC50 [5]: Not Active
- IC50 [6]: Not Active

Compound: NC(=O)N1c2ccccc2CC(=O)c2ccccc21 [OXCARBAZEPINE]
- IC50 [1]: Not Active
- IC50 [2]: Not Active
- Ki [2]: Not Active
- IC50 [3]: Not Active
- IC50 [4]: Not Active
- Ki [4]: Not Active
- IC50 [5]: Not Active
- IC50 [6]: Not Active

Compound: COc1ccnc(C[S+]([O-])c2nc3ccc(OC(F)F)cc3[nH]2)c1OC (stereo unspecified) [PANTOPRAZOLE]
- IC50 [1]: Not Active
- IC50 [2]: Not Active
- Ki [2]: Not Active
- IC50 [3]: Not Active
- IC50 [4]: Not Active
- Ki [4]: Not Active
- IC50 [5]: Not Active
- IC50 [6]: Not Active

Compound: N=C(N)c1ccc(OCCCCCOc2ccc(C(=N)N)cc2)cc1 [PENTAMIDINE]
- IC50 [1]: Not Active
- IC50 [2]: Not Active
- Ki [2]: Not Active
- IC50 [3]: Not Active
- IC50 [4]: Not Active
- Ki [4]: Not Active
- IC50 ([5]; read-out: IC50): 967 nM
- Ki [5]: 535 nM
- IC50 [6]: Not Active

Compound: NNCCc1ccccc1 [PHENELZINE]
- IC50 [1]: Not Active
- IC50 [2]: Not Active
- Ki [2]: Not Active
- IC50 [3]: Not Active
- IC50 [4]: Not Active
- Ki [4]: Not Active
- IC50 [5]: Not Active
- IC50 [6]: Not Active

Compound: CCc1ccc(CCOc2ccc(CC3SC(=O)NC3=O)cc2)nc1 (stereo unspecified) [PIOGLITAZONE]
- IC50 [1]: Not Active
- IC50 [2]: Not Active
- Ki [2]: Not Active
- IC50 [3]: Not Active
- IC50 [4]: Not Active
- Ki [4]: Not Active
- IC50 [5]: Not Active
- IC50 [6]: Not Active

Compound: CCCNC(C)C(=O)Nc1ccccc1C (stereo unspecified) [PRILOCAINE]
- IC50 [1]: Not Active
- IC50 [2]: Not Active
- Ki [2]: Not Active
- IC50 [3]: Not Active
- IC50 [4]: Not Active
- Ki [4]: Not Active
- IC50 [5]: Not Active
- IC50 [6]: Not Active

Compound: CCN(CC)CCNC(=O)c1ccc(N)cc1 [PROCAINAMIDE]
- IC50 [1]: Not Active
- IC50 [2]: Not Active
- Ki [2]: Not Active
- IC50 [3]: Not Active
- IC50 [4]: Not Active
- Ki [4]: Not Active
- IC50 [5]: Not Active
- IC50 [6]: Not Active

Compound: CCN(CC)CCCC(C)Nc1c2ccc(Cl)cc2nc2ccc(OC)cc12 (stereo unspecified) [QUINACRINE]
- IC50 [1]: Not Active
- IC50 [2]: Not Active
- Ki [2]: Not Active
- IC50 [3]: Not Active
- IC50 [4]: Not Active
- Ki [4]: Not Active
- IC50 ([5]; read-out: IC50): 3410 nM
- Ki [5]: 1890 nM
- IC50 [6]: Not Active

Compound: C[C@]12C=CC(=O)C=C1CC[C@H]1[C@@H]3C[C@@H](O)[C@](O)(C(=O)CO)[C@@]3(C)C[C@H](O)[C@@]12F [TRIAMCINOLONE]
- IC50 [1]: Not Active
- IC50 [2]: Not Active
- Ki [2]: Not Active
- IC50 [3]: Not Active
- IC50 [4]: Not Active
- Ki [4]: Not Active
- IC50 [5]: Not Active
- IC50 [6]: Not Active

Compound: CC[C@]1(O)C[C@@H]2CN(CCc3c([nH]c4ccccc34)[C@@](C(=O)OC)(c3cc4c(cc3OC)N(C)[C@H]3[C@@](O)(C(N)=O)[C@H](O)[C@]5(CC)C=CCN6CC[C@]43[C@@H]65)C2)C1 [VINDESINE]
- IC50 [1]: Not Active
- IC50 [2]: Not Active
- Ki [2]: Not Active
- IC50 [3]: Not Active
- IC50 [4]: Not Active
- Ki [4]: Not Active
- IC50 [5]: Not Active
- IC50 [6]: Not Active

Source: ChEMBL document CHEMBL1909046, “DrugMatrix in vitro pharmacology data”
